Data published in publication PMC11206203, “Peptide macrocyclisation via intramolecular interception of visible-light-mediated desulfurisation” (Chemical Science, 2024).
Where a SMILES comes first, the peptide text is derived from it. [ ]: non-standard residue; d: D form. Nle = CCCC[C@H](N)C(=O)O

How the values were obtained:
[1] = CD spectroscopy, alpha-helical structure; type: physicochemical; settings: alpha-helical content by CD; Fig. S159
[2] = target: T1, MCL-1 (Homo sapiens, UniProt Q07820); test: Competitive inhibition, fluorescence anisotropy, MCL-1 and fluorophore-labelled WT BH3 sequence; type: binding; settings: competition FA; MCL-1 (residues 172-327), tracer FAM-Ahx-BID / fluorophore-labelled WT BH3 sequence; 20 mM Tris, 150 mM NaCl, pH 7.6; 384-well plates, tested in triplicate; excitation 480 nm, emission 535 nm; fit to sigmoidal logistic model; Fig. S160; read-out: inhibitory potency (competitive inhibition, fluorescence anisotropy)
T1 construct: MCL-1 (residues 172-327) was expressed and purified as described previously; made in house
T1 sequence (Q07820 172-327): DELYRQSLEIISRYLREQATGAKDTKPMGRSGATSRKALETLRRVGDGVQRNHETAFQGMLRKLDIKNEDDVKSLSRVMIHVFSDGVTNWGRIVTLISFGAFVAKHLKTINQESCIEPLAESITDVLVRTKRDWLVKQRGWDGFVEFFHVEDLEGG
Excerpt: Finally, to explore internal peptide ‘stapling’ using this strategy, we selected a region of a BH3 protein – BID80–102, that binds MCL-1 to regulate apoptosis.[53,72] This PPI is known to play a significant role in cancer development and progression.[53,72] Three sequences (54–56) were synthesised with alGly and Cys positioned to afford either an internal i, i + 4 staple (57, 59; Fig. 5 and ESI ^†) or i, i + 7 staple (58; Fig. 5 and ESI ^†), fixing the length of either one or two full helical turns of the peptide, respectively. In addition, peptide macrocycle 26 is a head-to-tail macrocycle representing the i, i + 4 binding region of these longer sequences. The staple for all three peptides was successfully formed under the standard conditions, albeit in lower yield than the N- to C-terminal cyclisations previously explored (57–59). The alpha-helical structure of peptide 59 was assessed via CD spectroscopy. […]
All samples were prepared in 20mM Tris, 150 mM NaCl, pH 7.6 solutions. All assays were performed using 384 -well plates (Greiner Bio -one, UK) and tested in triplicate using an EnVisionTM 2103 MultiLabel plate reader (Perkin Elmer; Waltham, MA, USA). […] Measured data were processed and analysed as previously described. […]

[3] = C(sp3)-C(sp3) bond formation by visible-light-mediated Cys desulfurisation: alanyl radical adds to terminal alkene of allylglycine (or O-allyl Ser, pentenylGly, acrylamide); TCEP 50 eq (25 mM), (Ir[dF(CF3)ppy]2(dtbpy))PF6 1 mol%, 450 nm blue LED; unprotected peptides; settings: from C=CC[C@H](NC(=O)[C@H](C)NC(=O)[C@H](CC(C)C)NC(=O)[C@H](Cc1c[nH]cn1)NC(=O)[C@H](CCCNC(=N)N)NC(=O)[C@H](C)NC(=O)[C@@H](NC(=O)[C@H](CC(N)=O)NC(=O)[C@H](CCCNC(=N)N)NC(=O)[C@@H](NC(=O)[C@@H](NC(=O)[C@H](CC(=O)O)NC(=O)[C@H](CCC(=O)O)NC(C)=O)[C@@H](C)CC)[C@@H](C)CC)[C@@H](C)CC)C(=O)N[C@H](C(=O)NCC(=O)N[C@@H](CC(=O)O)C(=O)N[C@@H](CS)C(=O)N[C@@H](CCCC)C(=O)N[C@@H](CC(=O)O)C(=O)N[C@@H](CCCNC(=N)N)C(=O)N[C@@H](CO)C(=O)N[C@H](C(=O)N[C@@H](Cc1c[nH]c2ccccc12)C(N)=O)[C@@H](C)CC)C(C)C; 17-membered ring; 6 M Gdn.HCl, 0.1 M Na2HPO4 pH 7.5-8.0 / MeCN 9:1; 0.5 mM; 25.0 °C

| helicity (CD spectroscopy) [1] [%] | IC50 [2] [µM] | Molecule | ring closure, isolated yield [3] [%] |
| --- | --- | --- | --- |
| 38 | – | Ac-EDIIRNIARHLA(alG)VGDCNLDRSIW-NH2 [compound 56, starting peptide carrying the allyl glycine residue] | – |
| – | 7.4 ± 0.9 | CCCC[C@H](NC(=O)[C@H](CO)NC(=O)[C@H](CC(=O)O)NC(=O)CNC(=O)[C@@H](NC(=O)[C@H](CCC(N)=O)NC(=O)[C@H](C)NC(=O)[C@H](CC(C)C)NC(=O)[C@H](Cc1c[nH]cn1)NC(=O)[C@H](CCCNC(=N)N)NC(=O)[C@H](C)NC(=O)[C@@H](NC(=O)[C@H](CC(N)=O)NC(=O)[C@H](CCCNC(=N)N)NC(=O)[C@@H](NC(=O)[C@@H](NC(=O)[C@H](CC(=O)O)NC(=O)[C@H](CCC(=O)O)NC(C)=O)[C@@H](C)CC)[C@@H](C)CC)[C@@H](C)CC)C(C)C)C(=O)N[C@@H](CC(=O)O)C(=O)N[C@@H](CCCNC(=N)N)C(=O)N[C@@H](CO)C(=O)N[C@H](C(=O)N[C@@H](Cc1c[nH]c2ccccc12)C(N)=O)[C@@H](C)CC [BID-wt, reference compound] (Ac-EDIIRNIARHLAQVGDS[Nle]DRSIW-NH2) | – |
| – | 26 ± 4 | CCCC[C@H](NC(=O)[C@@H]1CCCC[C@H](NC(=O)[C@H](C)NC(=O)[C@H](CC(C)C)NC(=O)[C@H](Cc2c[nH]cn2)NC(=O)[C@H](CCCNC(=N)N)NC(=O)[C@H](C)NC(=O)[C@@H](NC(=O)[C@H](CC(N)=O)NC(=O)[C@H](CCCNC(=N)N)NC(=O)[C@@H](NC(=O)[C@@H](NC(=O)[C@H](CC(=O)O)NC(=O)[C@H](CCC(=O)O)NC(C)=O)[C@@H](C)CC)[C@@H](C)CC)[C@@H](C)CC)C(=O)N[C@@H](C(C)C)C(=O)NCC(=O)N[C@@H](CC(=O)O)C(=O)N1)C(=O)N[C@@H](CC(=O)O)C(=O)N[C@@H](CCCNC(=N)N)C(=O)N[C@@H](CO)C(=O)N[C@H](C(=O)N[C@@H](Cc1c[nH]c2ccccc12)C(N)=O)[C@@H](C)CC [compound 59] | 49 |
